# Experimental data taken from US9067943B2, “[1,2,3]triazolo[4,5-D]pyrimidine derivatives” (priority 2011, dated 2015).
# Assays:
# human CB1 receptors = target: T1, human CB1 receptors (Homo sapiens, UniProt P21554); experiment: cAMP assay; format: cell-based
# T1 construct: expressed in transfected cells; host or cells: CHO cells
# Method in brief: (§1)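 CHO cells expressing human CB1 or CB2 were preincubated 30 min at 30 °C in Krebs Ringer bicarbonate buffer with 1 mM IBMX, then exposed to compounds for 30 min at 30 °C. cAMP was measured by time-resolved FRET against a cAMP standard curve, and EC50 values were derived.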
# human CB2 receptors = target: T2, human CB2 receptors (Homo sapiens, UniProt P34972); experiment: cAMP assay; format: cell-based
# T2 construct: expressed in transfected cells; host or cells: CHO cells
# Method in brief: as §1
# T1 sequence (P21554 whole entry): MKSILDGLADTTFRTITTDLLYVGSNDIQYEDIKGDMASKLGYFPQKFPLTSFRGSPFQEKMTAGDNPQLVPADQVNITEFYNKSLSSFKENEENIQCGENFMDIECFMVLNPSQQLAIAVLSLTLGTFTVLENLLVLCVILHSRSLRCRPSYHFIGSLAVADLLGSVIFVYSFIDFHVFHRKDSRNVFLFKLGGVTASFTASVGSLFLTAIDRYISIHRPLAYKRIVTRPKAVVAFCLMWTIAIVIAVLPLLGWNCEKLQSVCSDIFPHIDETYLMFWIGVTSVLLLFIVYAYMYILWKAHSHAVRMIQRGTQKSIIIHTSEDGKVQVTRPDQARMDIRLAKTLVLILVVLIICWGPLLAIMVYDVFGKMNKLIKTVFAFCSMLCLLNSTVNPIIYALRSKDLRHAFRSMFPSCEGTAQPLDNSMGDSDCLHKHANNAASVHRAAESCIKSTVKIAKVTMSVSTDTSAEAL
# T2 sequence (P34972 whole entry): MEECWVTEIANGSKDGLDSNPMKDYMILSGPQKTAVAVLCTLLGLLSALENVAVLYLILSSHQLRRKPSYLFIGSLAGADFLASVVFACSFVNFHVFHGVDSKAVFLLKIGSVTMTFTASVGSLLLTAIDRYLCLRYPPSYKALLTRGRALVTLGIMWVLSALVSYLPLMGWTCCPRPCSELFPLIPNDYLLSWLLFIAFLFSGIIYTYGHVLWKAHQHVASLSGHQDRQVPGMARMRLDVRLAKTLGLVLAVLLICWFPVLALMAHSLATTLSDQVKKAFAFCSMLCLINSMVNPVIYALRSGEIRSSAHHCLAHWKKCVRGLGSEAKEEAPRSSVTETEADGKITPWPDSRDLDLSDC
smiles,measurement,setting,value
"Cc1nonc1Cn1nc2nc(NC(C)(C)C)nc(N3CCC(F)(F)C3)c2n1 [Example 140, tert-Butyl-[7-(3,3-difluoro-pyrrolidin-1-yl)-2-(4-methyl-furazan-3-ylmethyl)-2H-[1,2,3]triazolo[4,5-d]pyrimidin-5-yl]-amine]",EC50,human CB1 receptors,> 10000 nM
same,EC50,human CB2 receptors,6.1 nM
"Cc1nnc(Cn2nc3nc(C(C)(C)C)nc(N4CC[C@@](C)(O)C4)c3n2)o1 [Example 128-b, (R)-1-[5-tert-Butyl-2-(5-methyl-[1,3,4]oxadiazol-2-ylmethyl)-2H-[1,2,3]triazolo[4,5-d]pyrimidin-7-yl]-3-methyl-pyrrolidin-3-ol]",EC50,human CB1 receptors,> 10000 nM
same,EC50,human CB2 receptors,789 nM
"CC(C)(C)c1nc(N2CC[C@@](C)(O)C2)c2nn(Cc3ccccc3C(F)(F)F)nc2n1 [Example 125-b, (R)-1-[5-tert-Butyl-2-(2-trifluoromethyl-benzyl)-2H-[1,2,3]triazolo[4,5-d]pyrimidin-7-yl]-3-methyl-pyrrolidin-3-ol]",EC50,human CB1 receptors,> 10000 nM
same,EC50,human CB2 receptors,3.7 nM
"CC(C)(C)c1nc(N2CCOCC2)c2nn(Cc3ccc(F)cc3Cl)nc2n1 [Example 2, 5-tert-Butyl-2-(2-chloro-4-fluoro-benzyl)-7-morpholin-4-yl-2H-[1,2,3]triazolo[4,5-d]pyrimidine]",EC50,human CB1 receptors,> 10000 nM
same,EC50,human CB2 receptors,2.2 nM
"CC(C)(C)c1nc(N2CC3(COC3)C2)c2nn(Cc3ccccc3S(C)(=O)=O)nc2n1 [Example 107, 5-tert-Butyl-2-(2-methanesulfonyl-benzyl)-7-(2-oxa-6-aza-spiro[3.3]hept-6-yl)-2H-[1,2,3]triazolo[4,5-d]pyrimidine]",EC50,human CB1 receptors,> 10000 nM
same,EC50,human CB2 receptors,8.4 nM
